Measurements as given in paper PMC8996072, “Ag120-Mediated Inhibition of ASCT2-Dependent Glutamine Transport has an Anti-Tumor Effect on Colorectal Cancer Cells” (Frontiers in Pharmacology, 2022).

Target: T1, ASCT2 (Homo sapiens, UniProt Q15758)
T1 construct: gene SLC1A5
T1 sequence (Q15758 1-541): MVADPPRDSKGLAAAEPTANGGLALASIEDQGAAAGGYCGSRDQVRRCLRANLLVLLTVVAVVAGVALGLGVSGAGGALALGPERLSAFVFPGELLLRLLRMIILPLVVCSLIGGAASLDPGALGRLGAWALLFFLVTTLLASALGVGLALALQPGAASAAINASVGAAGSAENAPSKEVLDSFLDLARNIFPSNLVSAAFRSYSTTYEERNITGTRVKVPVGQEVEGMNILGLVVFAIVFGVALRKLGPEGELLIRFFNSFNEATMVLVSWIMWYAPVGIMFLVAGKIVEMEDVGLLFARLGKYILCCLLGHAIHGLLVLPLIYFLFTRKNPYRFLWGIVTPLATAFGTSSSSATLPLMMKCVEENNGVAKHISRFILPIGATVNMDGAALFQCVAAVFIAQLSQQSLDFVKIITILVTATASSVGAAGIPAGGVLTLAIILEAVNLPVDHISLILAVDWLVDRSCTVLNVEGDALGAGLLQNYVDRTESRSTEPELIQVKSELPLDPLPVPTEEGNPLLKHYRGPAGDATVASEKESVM
Test: SPR (Biacore T200), purified human ASCT2
Format: binding

N#Cc1ccnc(N2C(=O)CC[C@H]2C(=O)N(c2cncc(F)c2)[C@H](C(=O)NC2CC(F)(F)C2)c2ccccc2Cl)c1 [Ag120]
Kd: 5.91 µM
